# Measured values: ChEMBL document CHEMBL5532651, “HDAC specificity and kinase off-targeting by purine-benzohydroxamate anti-hematological tumor agents” (Eur J Med Chem, 2024)
# pIC50: −log10 of the molar value. The source made the active and inactive calls. No cut-off for these calls is given here.
# Key:
# U-937 [1] = test: Cytotoxicity against human U-937 cells assessed as cell growth inhibition at 1.6 to 3.6 uM by MTT assay; format: functional, cell-based; conditions: dose 1.6-3.6 µM, time lower 24.0 hrs, time upper […], TDE = time-dependent effect
# [2] = molecular target: T1, Tyrosine-protein kinase JAK2 (Homo sapiens, UniProt O60674); test: Inhibition of JAK2 (unknown origin) preincubated for 30 mins followed by ATP addition measured after 30 mins by HTRF assay
# [3] = molecular target: Tyrosine-protein kinase JAK3 (Homo sapiens, UniProt P52333); test: Inhibition of recombinant human JAK3 (781 to 1124 residues) in presence of ATP by ELISA
# [4] = molecular target: Tyrosine-protein kinase BTK (Homo sapiens) (UniProt Q06187); test: Inhibition of BTK (unknown origin) at 100 uM preincubated for 20 mins followed by 33P-ATP addition measured after 2 hrs by HotSpot kinase assay relative to control; conditions: time 140.0 min
# [5] = molecular target: Cyclin-dependent kinase 4 (Homo sapiens) (UniProt P11802); test: Inhibition of CDK4 (unknown origin) at 100 uM preincubated for 20 mins followed by 33P-ATP addition measured after 2 hrs by HotSpot kinase assay relative to control; conditions: time 140.0 min
# [6] = molecular target: Tyrosine-protein kinase JAK1 (Homo sapiens) (UniProt P23458); test: Inhibition of JAK1 (unknown origin) at 100 uM preincubated for 20 mins followed by 33P-ATP addition measured after 2 hrs by HotSpot kinase assay relative to control; conditions: time 140.0 min
# [7] = molecular target: T1, Tyrosine-protein kinase JAK2; test: Inhibition of JAK2 (unknown origin) at 100 uM preincubated for 20 mins followed by 33P-ATP addition measured after 2 hrs by HotSpot kinase assay relative to control; conditions: time 140.0 min
# [8] = molecular target: Tyrosine-protein kinase JAK3 (Homo sapiens) (UniProt P52333); test: Inhibition of JAK3 (unknown origin) at 100 uM preincubated for 20 mins followed by 33P-ATP addition measured after 2 hrs by HotSpot kinase assay relative to control; conditions: time 140.0 min
# [9] = molecular target: Tyrosine-protein kinase SYK (Homo sapiens) (UniProt P43405); test: Inhibition of SYK (unknown origin) at 100 uM preincubated for 20 mins followed by 33P-ATP addition measured after 2 hrs by HotSpot kinase assay relative to control; conditions: time 140.0 min
# [10] = molecular target: High affinity nerve growth factor receptor (Homo sapiens) (UniProt P04629); test: Inhibition of TRKa (unknown origin) at 100 uM preincubated for 20 mins followed by 33P-ATP addition measured after 2 hrs by HotSpot kinase assay relative to control; conditions: time 140.0 min
# [11] = molecular target: Phosphatidylinositol 4,5-bisphosphate 3-kinase catalytic subunit alpha isoform (Homo sapiens) (UniProt P42336); test: Inhibition of PI3Ka (unknown origin) at 100 uM preincubated for 20 mins followed by 33P-ATP addition measured after 2 hrs by HotSpot kinase assay relative to control; conditions: time 140.0 min
# [12] = molecular target: Phosphatidylinositol 4,5-bisphosphate 3-kinase catalytic subunit beta isoform (Homo sapiens) (UniProt P42338); test: Inhibition of PI3Kb (unknown origin) at 100 uM preincubated for 20 mins followed by 33P-ATP addition measured after 2 hrs by HotSpot kinase assay relative to control; conditions: time 140.0 min
# [13] = molecular target: Phosphatidylinositol 4,5-bisphosphate 3-kinase catalytic subunit gamma isoform (Homo sapiens) (UniProt P48736); test: Inhibition of PI3Kg (unknown origin) at 100 uM preincubated for 20 mins followed by 33P-ATP addition measured after 2 hrs by HotSpot kinase assay relative to control; conditions: time 140.0 min
# [14] = molecular target: Phosphatidylinositol 4,5-bisphosphate 3-kinase catalytic subunit delta isoform (Homo sapiens) (UniProt O00329); test: Inhibition of PI3Kd (unknown origin) at 100 uM preincubated for 20 mins followed by 33P-ATP addition measured after 2 hrs by HotSpot kinase assay relative to control; conditions: time 140.0 min
# Jurkat [15] = test: Cytotoxicity against human Jurkat cells assessed as cell growth inhibition at 0.05 to 1.2 uM by MTT assay; format: functional, cell-based; conditions: dose 0.05-1.2 µM, time lower 24.0 hrs, time upper […], TDE = time-dependent effect
# NAMALVA = test: Cytotoxicity against human NAMALVA cells assessed as cell growth inhibition at 0.1 to 9.9 uM by MTT assay; format: functional, cell-based; conditions: dose 0.1-9.9 µM, time lower 24.0 hrs, time upper […], TDE = time-dependent effect
# U-937 [16] = test: Cytotoxicity against human U-937 cells assessed as cell growth inhibition at 0.7 to 2.5 uM by MTT assay; format: functional, cell-based; conditions: dose 0.7-2.5 µM, time lower 24.0 hrs, time upper […], TDE = time-dependent effect
# Jurkat [17] = test: Induction of apoptosis in human Jurkat cells at IC50 measured after 48 hrs by flow cytometry; format: functional, cell-based
# T1 sequence (O60674 whole entry, the tested form may be a part): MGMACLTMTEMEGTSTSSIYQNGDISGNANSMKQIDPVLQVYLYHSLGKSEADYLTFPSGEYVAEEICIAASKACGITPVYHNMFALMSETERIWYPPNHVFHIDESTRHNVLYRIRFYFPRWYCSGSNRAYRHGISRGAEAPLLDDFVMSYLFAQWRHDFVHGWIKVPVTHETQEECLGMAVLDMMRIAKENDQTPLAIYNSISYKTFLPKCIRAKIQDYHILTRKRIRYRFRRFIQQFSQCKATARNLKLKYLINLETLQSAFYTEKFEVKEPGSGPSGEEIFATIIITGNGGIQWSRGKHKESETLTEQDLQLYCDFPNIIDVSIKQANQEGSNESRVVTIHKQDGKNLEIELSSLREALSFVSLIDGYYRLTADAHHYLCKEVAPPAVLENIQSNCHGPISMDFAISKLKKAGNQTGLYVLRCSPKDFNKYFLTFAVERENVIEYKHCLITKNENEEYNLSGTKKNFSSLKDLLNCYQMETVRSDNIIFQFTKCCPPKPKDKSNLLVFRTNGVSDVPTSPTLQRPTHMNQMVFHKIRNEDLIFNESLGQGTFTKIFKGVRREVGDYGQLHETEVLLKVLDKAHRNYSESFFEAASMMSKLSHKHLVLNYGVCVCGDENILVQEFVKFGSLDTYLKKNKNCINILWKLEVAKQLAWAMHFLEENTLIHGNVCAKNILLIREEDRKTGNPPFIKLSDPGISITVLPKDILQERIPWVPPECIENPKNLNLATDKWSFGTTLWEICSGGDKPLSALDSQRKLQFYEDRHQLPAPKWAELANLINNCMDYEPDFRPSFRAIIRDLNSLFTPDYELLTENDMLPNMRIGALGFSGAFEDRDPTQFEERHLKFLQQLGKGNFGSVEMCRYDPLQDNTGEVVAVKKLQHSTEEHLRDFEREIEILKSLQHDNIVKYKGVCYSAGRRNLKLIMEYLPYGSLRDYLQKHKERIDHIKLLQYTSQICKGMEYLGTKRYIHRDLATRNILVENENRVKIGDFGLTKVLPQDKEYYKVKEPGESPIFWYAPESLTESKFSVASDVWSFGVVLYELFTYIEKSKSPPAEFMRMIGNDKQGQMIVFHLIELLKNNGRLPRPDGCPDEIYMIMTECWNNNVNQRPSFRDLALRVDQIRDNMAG
# Phosphatidylinositol 4,5-bisphosphate 3-kinase catalytic subunit alpha isoform (Homo sapiens), sequence (P42336 whole entry, canonical isoform): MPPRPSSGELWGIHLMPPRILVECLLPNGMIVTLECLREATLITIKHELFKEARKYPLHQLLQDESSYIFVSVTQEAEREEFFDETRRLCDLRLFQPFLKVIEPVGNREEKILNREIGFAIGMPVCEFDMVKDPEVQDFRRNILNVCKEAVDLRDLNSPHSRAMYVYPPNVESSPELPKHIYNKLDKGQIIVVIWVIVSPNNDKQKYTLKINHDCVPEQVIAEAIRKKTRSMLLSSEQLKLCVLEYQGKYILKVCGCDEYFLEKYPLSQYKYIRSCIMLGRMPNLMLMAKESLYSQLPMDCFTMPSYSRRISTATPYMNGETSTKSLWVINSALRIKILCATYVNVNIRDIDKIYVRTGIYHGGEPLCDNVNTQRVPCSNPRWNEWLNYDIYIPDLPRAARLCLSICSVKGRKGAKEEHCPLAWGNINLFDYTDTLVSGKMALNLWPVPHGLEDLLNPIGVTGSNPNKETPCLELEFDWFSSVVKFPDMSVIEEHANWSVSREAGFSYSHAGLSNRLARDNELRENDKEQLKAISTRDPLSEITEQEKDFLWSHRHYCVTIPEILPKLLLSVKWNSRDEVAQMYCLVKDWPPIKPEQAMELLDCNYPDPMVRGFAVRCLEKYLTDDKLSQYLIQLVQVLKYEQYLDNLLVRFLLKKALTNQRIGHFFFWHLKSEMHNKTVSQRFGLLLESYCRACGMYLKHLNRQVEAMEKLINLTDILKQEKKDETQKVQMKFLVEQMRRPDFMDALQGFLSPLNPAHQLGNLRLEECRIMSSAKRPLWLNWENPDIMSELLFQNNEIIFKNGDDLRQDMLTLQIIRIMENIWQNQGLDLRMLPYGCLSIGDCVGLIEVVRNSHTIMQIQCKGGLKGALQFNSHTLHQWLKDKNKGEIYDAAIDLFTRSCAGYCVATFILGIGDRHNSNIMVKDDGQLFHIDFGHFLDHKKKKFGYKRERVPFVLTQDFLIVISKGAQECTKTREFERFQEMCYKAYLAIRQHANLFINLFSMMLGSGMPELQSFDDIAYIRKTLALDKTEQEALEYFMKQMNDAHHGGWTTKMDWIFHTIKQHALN
# High affinity nerve growth factor receptor (Homo sapiens), sequence (P04629 33-796 limits assumed): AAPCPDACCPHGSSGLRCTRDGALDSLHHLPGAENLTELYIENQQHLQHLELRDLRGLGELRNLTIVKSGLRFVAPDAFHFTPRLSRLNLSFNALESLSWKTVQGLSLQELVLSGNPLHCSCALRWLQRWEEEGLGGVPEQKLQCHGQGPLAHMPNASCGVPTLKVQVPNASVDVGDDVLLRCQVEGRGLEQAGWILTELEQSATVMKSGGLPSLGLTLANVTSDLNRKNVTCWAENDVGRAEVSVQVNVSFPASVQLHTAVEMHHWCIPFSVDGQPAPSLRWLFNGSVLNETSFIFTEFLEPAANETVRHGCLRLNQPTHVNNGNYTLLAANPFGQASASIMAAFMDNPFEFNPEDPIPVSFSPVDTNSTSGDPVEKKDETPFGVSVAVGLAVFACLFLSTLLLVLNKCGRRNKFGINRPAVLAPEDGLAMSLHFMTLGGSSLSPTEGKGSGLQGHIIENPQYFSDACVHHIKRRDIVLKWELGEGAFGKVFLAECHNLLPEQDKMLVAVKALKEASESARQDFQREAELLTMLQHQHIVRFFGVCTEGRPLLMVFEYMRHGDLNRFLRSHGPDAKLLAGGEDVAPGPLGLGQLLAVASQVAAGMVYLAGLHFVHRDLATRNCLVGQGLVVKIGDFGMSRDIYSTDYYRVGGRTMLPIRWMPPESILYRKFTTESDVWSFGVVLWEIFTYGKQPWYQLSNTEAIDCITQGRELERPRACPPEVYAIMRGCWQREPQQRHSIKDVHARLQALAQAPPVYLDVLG
# Tyrosine-protein kinase JAK1 (Homo sapiens), sequence (P23458 whole entry): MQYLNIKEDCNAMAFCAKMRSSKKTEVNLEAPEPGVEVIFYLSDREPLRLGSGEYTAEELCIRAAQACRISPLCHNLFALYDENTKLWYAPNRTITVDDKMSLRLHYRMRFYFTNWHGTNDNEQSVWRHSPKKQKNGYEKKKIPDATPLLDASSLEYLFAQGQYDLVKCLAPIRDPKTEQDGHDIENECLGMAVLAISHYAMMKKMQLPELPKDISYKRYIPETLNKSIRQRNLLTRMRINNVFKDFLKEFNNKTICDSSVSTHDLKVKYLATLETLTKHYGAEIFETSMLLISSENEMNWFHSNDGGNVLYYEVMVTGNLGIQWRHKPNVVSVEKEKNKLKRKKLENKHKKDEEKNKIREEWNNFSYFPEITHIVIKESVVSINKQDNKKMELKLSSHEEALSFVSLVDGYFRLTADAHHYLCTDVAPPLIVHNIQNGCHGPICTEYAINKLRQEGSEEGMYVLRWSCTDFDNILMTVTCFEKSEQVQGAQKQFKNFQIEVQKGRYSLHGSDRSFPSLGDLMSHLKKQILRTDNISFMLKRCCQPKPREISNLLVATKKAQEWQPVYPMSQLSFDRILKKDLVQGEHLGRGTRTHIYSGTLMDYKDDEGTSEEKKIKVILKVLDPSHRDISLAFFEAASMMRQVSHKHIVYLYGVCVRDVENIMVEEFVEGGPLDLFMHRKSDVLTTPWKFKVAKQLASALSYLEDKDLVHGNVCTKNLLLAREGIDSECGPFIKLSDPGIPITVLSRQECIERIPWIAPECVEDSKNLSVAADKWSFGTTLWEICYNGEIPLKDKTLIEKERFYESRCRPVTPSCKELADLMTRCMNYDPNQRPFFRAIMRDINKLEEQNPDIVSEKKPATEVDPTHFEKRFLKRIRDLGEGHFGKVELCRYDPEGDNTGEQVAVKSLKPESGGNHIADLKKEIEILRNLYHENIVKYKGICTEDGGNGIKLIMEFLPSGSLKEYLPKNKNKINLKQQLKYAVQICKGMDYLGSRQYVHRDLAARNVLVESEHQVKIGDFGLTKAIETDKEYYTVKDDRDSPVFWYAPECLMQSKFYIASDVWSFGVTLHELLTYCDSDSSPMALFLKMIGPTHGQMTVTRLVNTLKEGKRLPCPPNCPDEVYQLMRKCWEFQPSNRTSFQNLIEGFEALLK
# Tyrosine-protein kinase BTK (Homo sapiens), sequence (Q06187 whole entry): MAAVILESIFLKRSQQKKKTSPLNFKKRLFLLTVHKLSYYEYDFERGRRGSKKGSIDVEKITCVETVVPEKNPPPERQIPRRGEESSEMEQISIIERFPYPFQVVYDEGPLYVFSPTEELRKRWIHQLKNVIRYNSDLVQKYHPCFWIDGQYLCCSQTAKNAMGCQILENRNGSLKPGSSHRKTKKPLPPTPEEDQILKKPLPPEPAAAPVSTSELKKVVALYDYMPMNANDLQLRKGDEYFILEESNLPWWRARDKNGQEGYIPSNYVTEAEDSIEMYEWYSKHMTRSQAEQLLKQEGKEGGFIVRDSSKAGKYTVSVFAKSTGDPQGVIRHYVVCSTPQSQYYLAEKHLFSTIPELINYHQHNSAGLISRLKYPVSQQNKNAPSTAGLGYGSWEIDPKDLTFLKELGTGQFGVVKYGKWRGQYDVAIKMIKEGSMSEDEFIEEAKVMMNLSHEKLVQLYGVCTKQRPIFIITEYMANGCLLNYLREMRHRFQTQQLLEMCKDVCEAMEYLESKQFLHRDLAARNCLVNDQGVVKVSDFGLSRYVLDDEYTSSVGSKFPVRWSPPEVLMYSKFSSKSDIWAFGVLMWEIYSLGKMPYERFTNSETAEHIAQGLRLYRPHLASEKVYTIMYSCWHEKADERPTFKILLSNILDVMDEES
# Cyclin-dependent kinase 4 (Homo sapiens), sequence (P11802 whole entry): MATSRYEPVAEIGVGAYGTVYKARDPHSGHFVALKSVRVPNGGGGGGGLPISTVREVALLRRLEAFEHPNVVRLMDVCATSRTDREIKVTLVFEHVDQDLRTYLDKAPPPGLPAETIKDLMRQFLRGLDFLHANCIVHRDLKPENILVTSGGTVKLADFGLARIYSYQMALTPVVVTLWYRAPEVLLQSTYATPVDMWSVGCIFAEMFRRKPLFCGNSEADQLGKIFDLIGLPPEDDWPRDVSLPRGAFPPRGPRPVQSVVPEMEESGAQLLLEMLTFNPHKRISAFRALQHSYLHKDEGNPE
SMILES,inhibition (U-937 [1]),pIC50 [2],pIC50 [3],inhibition [4] [%],inhibition [5] [%],inhibition [6] [%],inhibition [7] [%],inhibition [8] [%],inhibition [9] [%],inhibition [10] [%],inhibition [11] [%],inhibition [12] [%],inhibition [13] [%],inhibition [14] [%],inhibition (Jurkat [15]),inhibition (NAMALVA),inhibition (U-937 [16]),Activity (Jurkat [17])
O=C(NO)c1ccc(Cn2cnc3c(Nc4ccc(F)c(Cl)c4)ncnc32)cc1,Tde,4.46,5.59,99.2,73.2,63.2,99.5,94.5,71.2,99.9,29.8,62,44.2,51.2,–,–,–,–
COc1ccc(Nc2ncnc3c2ncn3Cc2ccc(C(=O)NO)cc2)cc1,–,–,–,–,–,–,–,–,–,–,–,–,–,–,Tde,Tde,Tde,Active
